This passage reports IC50 results from patent US20110144056A1, “PYRAZOLE DERIVATIVES USEFUL AS INHIBITORS OF FAAH” (priority 2008, published 2011).

pIC50: −log10 of the molar value.

For one assay, the target named is T1, FAAH (Homo sapiens, UniProt O00519).
T1 construct: The full length FAAH was subcloned into the mammalian expression vector, pcDEF.neo; expressed in transfected cells; cDNA from Origene
T1 sequence (O00519 1-579): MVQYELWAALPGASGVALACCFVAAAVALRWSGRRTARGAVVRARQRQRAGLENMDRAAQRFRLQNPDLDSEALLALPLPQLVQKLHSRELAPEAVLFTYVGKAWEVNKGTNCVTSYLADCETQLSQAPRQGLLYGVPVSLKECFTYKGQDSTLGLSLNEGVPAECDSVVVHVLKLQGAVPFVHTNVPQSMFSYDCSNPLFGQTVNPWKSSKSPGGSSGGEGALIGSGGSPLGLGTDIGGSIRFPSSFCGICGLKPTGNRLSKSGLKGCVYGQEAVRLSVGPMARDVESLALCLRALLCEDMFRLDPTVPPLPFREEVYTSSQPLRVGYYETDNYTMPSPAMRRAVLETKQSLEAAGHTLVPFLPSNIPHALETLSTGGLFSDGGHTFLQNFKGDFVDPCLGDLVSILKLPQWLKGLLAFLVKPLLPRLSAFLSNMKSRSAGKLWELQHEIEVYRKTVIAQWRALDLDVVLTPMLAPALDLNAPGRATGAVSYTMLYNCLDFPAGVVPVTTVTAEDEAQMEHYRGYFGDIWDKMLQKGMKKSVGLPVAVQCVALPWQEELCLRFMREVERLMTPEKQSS
The assay can be described thus: FAAH enzyme assay, lysate of CHO cells expressing human FAAH. The format is biochemical. The settings on record: cell lysate, read-out: FAAH Human Cell Lysate IC50. The text has this: (§1) To assist in assay development stable cell lines for human, murine and rat full length FAAH were developed. Human FAAH cDNA (Accession No: NM_001441.1) was purchased from Origene (Rockville, Md.). The full length FAAH was subcloned into the mammalian expression vector, pcDEF.neo, using XbaI and […] restriction sites and used for stable cell line generation.
CHO cells expressing FAAH were used to prepare either crude cell lysate or microsome fractions. To harvest cells, tissue culture media was decanted, the monolayer washed three times with Ca^++Mg^++ free PBS and cells recovered after 15 min in enzyme free dissociation media (Millipore Corp, Billerica, Mass.). Cells were collected by centrifuging at 2000 rpm for 15 min. and the cell pellet re-suspended with 50 mM HEPES (pH 7.4) containing 1 mM EDTA and the protease inhibitors aprotinin (1 mg/ml) and leupeptin (100 μM). The suspension was sonicated at 4° C. and the cell lysate recovered after centrifuging at 12,000×g (14,600 rpm, SS34 rotor) for 20 min at 4° C. to form a crude pellet of cell debris, nuclei, peroxisomes, lysosomes, and mitochondria; the supernatant or cell lysate was used for FAAH enzyme assay. In some cases, microsomes fractions enriched in FAAH were prepared by centrifuging the cell lysate further at 27,000 rpm (100,000×g) in SW28 rotor for 50 minutes at 4° C. The pellet containing FAAH-enriched microsomes was re-suspend in 50 mM HEPES, (pH 7.4) 1 mM EDTA, and any remaining DNA sheared by passage of material through a 23 gauge needle and aliquots of enzyme were store at −80° C. prior to use.
(American Radiolabeled Chemicals; 1 mCi/ml) with FAAH (Life Sciences (1995), 56, 1999-2005 and Journal of Pharmacology and Experimented Therapeutics (1997), 283, 729-734), Analytical. Biochemistry (2003), 318, 270-5. In addition, routine assays were performed monitoring hydrolysis of arachidonyl-7-amino-4-methylcoumarin amide (AAMCA) by following increase in fluorescence upon release of 7-amino 4-methyl coumarin (λEX=355 nm, (λEM=460 nm). Analytical. Biochemistry (2005). 343, 143-51.
(§2) Assays are performed on either cell lysate or microsome fractions prepared as described or in whole cell format employing either the fluorescent substrate AAMCA (Cayman chemical, Ann Arbor, Mich.,) or ^3H-anandmaide ([ETHANOLAMINE-1-3H]American Radiolabeled Chemicals; 1 mCi/ml). The cell lysate or microsome assay is performed in Costar black wall, clear bottom plates by adding FAAH_CHO (whole cell, cell lysate or microsome) in assay buffer (50 mM Phosphate, pH 8.0, 1 mM EDTA, 200 mM KCl, 0.2% glycerol, 0.1% fatty acid free BSA) to each well, followed by either DMSO or compound and allowed to incubate at 22-25° C. for fifteen minutes. AAMCA substrate was used to achieve a final concentration of 1 μM and reaction allowed to proceed at room temperature for 1-3 hours. Fluorescent release as a measure of FAAH activity was monitored by reading the plate in a CytoFluor Multiplate Reader ([…]). Whole cell assay is conducted with cells harvested after rinsing tissue culture flasks three times with Ca^++Mg^++ free PBS, incubating for 10 mm in Enzyme free dissociation media and centrifuging for 5 minutes at 1,000 rpm in table top centrifuge. Cells are resuspended in assay buffer at desired cell number in (4×10^4 cells/assay in 96-well format; 1×10^4 cells/assay in 384-well format) and assayed as described.
Alternatively, assays are performed using anandamide [ethanolamine 1-^3H] (specific activity of 10 Ci/mmol) diluted with cold anandamide to achieve a final assay concentration of 1 μM anandamide (˜50,000 cpm). Enzyme (CHO cell lysate, brain or liver homogenate) is incubated in assay buffer (50 mM Phosphate, pH 8.0, 1 mM EDTA, 200 mM KCl, 0.2% glycerol, 0.1% fatty acid free BSA) with inhibitor at 25° C. for 30 minutes. The reaction was terminated by addition of 2 volumes of chloroform:methanol (1:1) and mixed by vortexing. […]
For the molecule “6-{4-[(5-chloropyridin-2-yl)sulfanyl]-1-(2-fluoroethyl)-1H-pyrazol-3-yl}-2-(difluoromethyl)quinoline [Example 333]”, the negative logarithm of the IC50 (pIC50) is 7.10.
Take `CC(C)(O)c1ccc2cc(-c3nn(CCF)cc3Sc3ccc(Cl)cc3)ccc2n1` [Example 357]: the pIC50 was 6.92.
Same read-out and setting: to `FC(F)c1ccc2cc(-c3n[nH]cc3Sc3ccc(Cl)cn3)ccc2n1` [Example 332] belongs 6.57.
Consider `CCNC(=O)c1cnc2cc(-c3nn(CCF)cc3Sc3ccc(Cl)cc3)cnc2c1` [Example 392], for which the negative logarithm of the IC50 (pIC50) was 7.33.
Take `OCc1ccc2cc(-c3n[nH]cc3Sc3ccc(Cl)cc3)ccc2n1` [Example 375]: the negative logarithm of the IC50 (pIC50) is 7.96.
As to `CCOC(=O)c1ccc2cc(-c3nn(C4CC4)cc3Sc3ccc(Cl)cn3)ccc2n1` [Example 399], the negative-log IC50 (pIC50) was 7.96.
As to `Cc1ccc2cc(-c3n[nH]cc3Sc3ccc(Cl)cc3)ccc2n1` [Example 385], the pIC50 was 6.72.
Regarding `CC(C)(O)c1ccc(-c2nn(-c3ccc(F)cn3)cc2Sc2ccc(Cl)cn2)nn1` [Example 350], the negative logarithm of the IC50 (pIC50) was 6.99.
For the molecule `O=c1c2ccc(-c3nn(C4CC4)cc3Sc3ccc(Cl)cc3)cc2ncn1C1CC1` [Example 314, 7-{4-[(4-chlorophenyl)sulfanyl]-1-cyclopropyl-1H-pyrazol-3-yl}-3-cyclopropylquinazolin-4(3H)-one], the pIC50 is 6.69.
Same read-out and setting: to `CCN1CCc2cc(-c3nn(-c4ccccn4)cc3Sc3ccc(Cl)cc3)ccc2C1=O` [Example 338] belongs 8.22; to `Cn1cc(Sc2ccc(Cl)cc2)c(-c2ccc3nc(C#N)ccc3c2)n1` [Example 364], 6.88; to `CC(C)(O)c1ccc2cc(-c3n[nH]cc3Sc3ccc(Cl)cc3)ccc2n1` [Example 358], 6.37.
On to `CCOC(=O)c1ccc2cc(-c3n[nH]cc3Sc3ccc(Cl)cc3)ccc2n1` [Example 354], for which the pIC50 was 9.03.
For the molecule `CC(C)(O)c1ccc(-c2nn(-c3cnn(C4CC4)c3)cc2Sc2ccc(Cl)cc2)nn1` [Example 351], the pIC50 was 6.61.
As to `OCc1cnc2cc(-c3nn(CCF)cc3Sc3ccc(Cl)cc3)ccc2c1` [Example 391], the pIC50 was 7.62.
Consider `CCOC(=O)c1ccc2cc(-c3nn(C)cc3Sc3ccc(Cl)cc3)ccc2n1` [Example 352], for which the pIC50 is 8.66.
Regarding `FC(F)c1ccc2cc(-c3nn(-c4ccccn4)cc3Sc3ccc(Cl)cc3)ccc2n1` [Example 379], the pIC50 is 8.31.
Regarding `O=c1[nH]cnc2cc(-c3nn(C4CC4)cc3Sc3ccc(Cl)cc3)ccc12` [Example 315, 7-{4-[(4-chlorophenyl)sulfanyl]-1-cyclopropyl-1H-pyrazol-3-yl}quinazolin-4(3H)-one], the pIC50 is 7.07.
In the case of `CCC(=O)N1CCc2cc(-c3nn(CCF)cc3Sc3ccc(Cl)cc3)ccc2C1` [Example 390], the pIC50 is 7.21.
As to `Cc1ccc2cc(-c3nn(C4CC4)cc3Sc3ccc(Cl)cc3)ccc2n1` [Example 384], the pIC50 is 7.74.
In the case of `N#Cc1ccc2cc(-c3n[nH]cc3Sc3ccc(Cl)cc3)ccc2n1` [Example 363], the pIC50 was 7.64.
On the same count and under the same terms, to `CCn1cc(-n2cc(Sc3ccc(Cl)cc3)c(-c3ccc4nc(C(F)F)ccc4c3)n2)cn1` [Example 382] belongs 8.31; to `CN(C)C(=O)c1ccc2cc(-c3n[nH]cc3Sc3ccc(Cl)cn3)ccc2n1` [Example 330, 6-{4-[(5-chloropyridin-2-yl)sulfanyl]-1H-pyrazol-3-yl}-N,N-dimethylquinoline-2-carboxamide], 8.24.
Same read-out and setting: to `CCNC(=O)c1ccc2cc(-c3nn(CCF)cc3Sc3ccc(Cl)cc3)ccc2n1` [Example 366] belongs 8.14; to `O=C1c2ccc(-c3nn(-c4ccccn4)cc3Sc3ccc(Cl)cc3)cc2CCN1CCF` [Example 339], 8.57; to `O=C1CCc2cc(-c3nn(-c4ccccn4)cc3Sc3ccc(Cl)cc3)ccc2N1` [Example 345], 7.44.

In another assay the target is T1, FAAH. The assay can be described thus: FAAH whole cell assay, CHO cells expressing human FAAH. The format is cell-based. The settings on record: read-out: FAAH Human Whole Cell IC50.
Source text: as §1
Murine (accession number NM_010173) and Rat FAAH (accession number NM_024132) was amplified by reverse transcriptase polymerase chain reaction (RT-PCR) from brain cDNA (BD Biosciences, San Jose, Calif.) using primers 1 and 2 or primers 1 and 3 respectively (see Table). The resulting PCR product was ligated into pCR4TOPO and DNA sequence confirmed. The full length murine FAAH was subcloned into the mammalian expression vector, pcDEFneo using either EcoRI (murine) or KpnI and EcoRI (rat) restriction sites. Chinese hamster ovary cells (CHO) were transfected following manufacturers protocol (AMAXA). Forty eight hours post transfection, cells were trypsinized and transferred to 96 well plates in Iscove's DMEM media supplemented with 2 mM Glutamine, 10% fetal calf serum, 1 mg/ml geneticin and HT Supplement (0.1 mM sodium hypoxanthine, 0.016 mM thymidine) in order to isolate single clones. Following selection in geneticin, individual clones were selected and FAAH activity was assessed using a whole cell fluorescent anandamide assay, modified from Ramarao et al (2005). Following removal of tissue culture media cells were dislodged following addition of Cellstripper (Mediatech, Inc. Manassas, Va.) and transferred to 96 well black clear bottom assay plate, centrifuged at 1,000 rpm for 3 mins and media removed and replaced with assay buffer (50 mM Tris pH8.0, 1 mM EDTA, 0.1% fatty acid free BSA). The reaction was initiated by addition of fluorescent substrate, AMC Arachidonoyl Amide (Cayman Chemical, Ann Arbor, Mich.) to 1 μM and reaction allowed to proceed for 2 hours at room temperature. Release of fluorescence was monitored in a CytoFluor Multiplate Reader. Cells expressing the highest amount of FAAH activity were selected for study with FAAH inhibitors.
as §2
On to `CC(=O)N1CCc2cc(-c3c(Sc4ccc(Cl)cc4)cnn3C3CCCCO3)ccc2C1` (stereo not shown) [Example 404], for which the negative logarithm of the IC50 (pIC50) was 7.60.
Turning to `CCOC(=O)c1cnc2cc(-c3c(Sc4ccc(Cl)cc4)cnn3C3CCCCO3)ccc2c1` (stereo not shown) [Example 407], the negative logarithm of the IC50 (pIC50) is 8.71.
On the same count and under the same terms, to `CCNC(=O)c1ccc2cc(-c3c(Sc4ccc(Cl)cc4)cnn3C3CCCCO3)ccc2n1` (stereo not shown) [Example 402] belongs 8.04; to `N#Cc1ccc2cc(-c3c(Sc4ccc(Cl)cc4)cnn3C3CCCCO3)ccc2n1` (stereo not shown) [Example 405], 7.46; to `CC(C)(O)c1ccc2cc(-c3c(Sc4ccc(Cl)cc4)cnn3C3CCCCO3)ccc2n1` (stereo not shown) [Example 403], 7.20.

A word on the pIC50: it is the negative decadic logarithm of the IC50, by convention in mol/L.
